Reference: ChEMBL document CHEMBL2074425, “Characterization of the 5'-flanking region of the human multidrug resistance protein 2 (MRP2) gene and its regulation in comparison withthe multidrug resistance protein 3 (MRP3) gene” (Eur J Biochem, 2000)

Experiments:
[1] = target: Multidrug resistance associated protein (Homo sapiens) (UniProt Q96QA9); experiment: (§1) TP_TRANSPORTER: reporter gene activity in promoter constructs in HepG2 cells; type: functional, cell-based
[2] = target: ATP-binding cassette sub-family C member 2 (Homo sapiens, UniProt Q92887); experiment: as §1; type: functional, cell-based
Sequence of ATP-binding cassette sub-family C member 2 (Q92887 whole entry): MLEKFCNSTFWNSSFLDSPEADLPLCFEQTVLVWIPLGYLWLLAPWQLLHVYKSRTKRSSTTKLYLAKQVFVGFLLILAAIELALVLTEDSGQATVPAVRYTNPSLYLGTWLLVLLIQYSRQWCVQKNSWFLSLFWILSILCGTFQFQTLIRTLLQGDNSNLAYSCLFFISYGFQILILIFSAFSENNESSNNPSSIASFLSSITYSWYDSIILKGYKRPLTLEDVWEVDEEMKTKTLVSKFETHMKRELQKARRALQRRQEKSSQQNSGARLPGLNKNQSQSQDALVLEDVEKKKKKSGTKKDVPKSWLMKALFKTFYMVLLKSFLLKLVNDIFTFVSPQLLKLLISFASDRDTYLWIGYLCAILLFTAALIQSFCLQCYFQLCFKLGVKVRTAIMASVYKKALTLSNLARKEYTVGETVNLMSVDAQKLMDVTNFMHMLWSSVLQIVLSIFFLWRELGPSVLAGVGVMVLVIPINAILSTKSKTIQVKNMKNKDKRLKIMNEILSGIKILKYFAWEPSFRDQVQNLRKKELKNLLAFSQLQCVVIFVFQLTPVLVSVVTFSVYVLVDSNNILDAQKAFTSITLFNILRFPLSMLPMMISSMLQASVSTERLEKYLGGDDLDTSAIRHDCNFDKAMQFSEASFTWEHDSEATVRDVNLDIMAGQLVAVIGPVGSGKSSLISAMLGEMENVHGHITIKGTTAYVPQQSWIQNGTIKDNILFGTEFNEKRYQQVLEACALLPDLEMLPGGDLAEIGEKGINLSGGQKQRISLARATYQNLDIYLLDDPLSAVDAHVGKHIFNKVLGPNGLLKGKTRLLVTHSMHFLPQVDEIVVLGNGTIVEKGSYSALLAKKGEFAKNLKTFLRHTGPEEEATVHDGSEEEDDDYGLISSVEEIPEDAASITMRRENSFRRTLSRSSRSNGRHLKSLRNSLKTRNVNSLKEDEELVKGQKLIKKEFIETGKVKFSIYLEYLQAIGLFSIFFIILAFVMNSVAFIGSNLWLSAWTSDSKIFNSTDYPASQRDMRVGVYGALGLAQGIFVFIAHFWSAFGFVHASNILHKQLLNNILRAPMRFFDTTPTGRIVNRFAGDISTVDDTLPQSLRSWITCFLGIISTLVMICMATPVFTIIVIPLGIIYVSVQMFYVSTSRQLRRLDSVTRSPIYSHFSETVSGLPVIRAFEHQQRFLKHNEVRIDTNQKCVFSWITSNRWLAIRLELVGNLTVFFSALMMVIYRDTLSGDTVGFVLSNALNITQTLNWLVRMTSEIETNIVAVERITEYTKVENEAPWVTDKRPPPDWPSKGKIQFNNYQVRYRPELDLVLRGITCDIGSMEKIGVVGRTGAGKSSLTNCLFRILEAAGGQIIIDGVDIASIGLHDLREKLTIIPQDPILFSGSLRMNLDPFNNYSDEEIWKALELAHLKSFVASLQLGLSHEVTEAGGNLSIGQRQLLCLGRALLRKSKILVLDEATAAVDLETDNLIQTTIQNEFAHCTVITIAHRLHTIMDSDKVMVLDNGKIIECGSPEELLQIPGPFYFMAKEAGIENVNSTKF

Sequence of Multidrug resistance associated protein (Homo sapiens) (Q96QA9 as listed by the source): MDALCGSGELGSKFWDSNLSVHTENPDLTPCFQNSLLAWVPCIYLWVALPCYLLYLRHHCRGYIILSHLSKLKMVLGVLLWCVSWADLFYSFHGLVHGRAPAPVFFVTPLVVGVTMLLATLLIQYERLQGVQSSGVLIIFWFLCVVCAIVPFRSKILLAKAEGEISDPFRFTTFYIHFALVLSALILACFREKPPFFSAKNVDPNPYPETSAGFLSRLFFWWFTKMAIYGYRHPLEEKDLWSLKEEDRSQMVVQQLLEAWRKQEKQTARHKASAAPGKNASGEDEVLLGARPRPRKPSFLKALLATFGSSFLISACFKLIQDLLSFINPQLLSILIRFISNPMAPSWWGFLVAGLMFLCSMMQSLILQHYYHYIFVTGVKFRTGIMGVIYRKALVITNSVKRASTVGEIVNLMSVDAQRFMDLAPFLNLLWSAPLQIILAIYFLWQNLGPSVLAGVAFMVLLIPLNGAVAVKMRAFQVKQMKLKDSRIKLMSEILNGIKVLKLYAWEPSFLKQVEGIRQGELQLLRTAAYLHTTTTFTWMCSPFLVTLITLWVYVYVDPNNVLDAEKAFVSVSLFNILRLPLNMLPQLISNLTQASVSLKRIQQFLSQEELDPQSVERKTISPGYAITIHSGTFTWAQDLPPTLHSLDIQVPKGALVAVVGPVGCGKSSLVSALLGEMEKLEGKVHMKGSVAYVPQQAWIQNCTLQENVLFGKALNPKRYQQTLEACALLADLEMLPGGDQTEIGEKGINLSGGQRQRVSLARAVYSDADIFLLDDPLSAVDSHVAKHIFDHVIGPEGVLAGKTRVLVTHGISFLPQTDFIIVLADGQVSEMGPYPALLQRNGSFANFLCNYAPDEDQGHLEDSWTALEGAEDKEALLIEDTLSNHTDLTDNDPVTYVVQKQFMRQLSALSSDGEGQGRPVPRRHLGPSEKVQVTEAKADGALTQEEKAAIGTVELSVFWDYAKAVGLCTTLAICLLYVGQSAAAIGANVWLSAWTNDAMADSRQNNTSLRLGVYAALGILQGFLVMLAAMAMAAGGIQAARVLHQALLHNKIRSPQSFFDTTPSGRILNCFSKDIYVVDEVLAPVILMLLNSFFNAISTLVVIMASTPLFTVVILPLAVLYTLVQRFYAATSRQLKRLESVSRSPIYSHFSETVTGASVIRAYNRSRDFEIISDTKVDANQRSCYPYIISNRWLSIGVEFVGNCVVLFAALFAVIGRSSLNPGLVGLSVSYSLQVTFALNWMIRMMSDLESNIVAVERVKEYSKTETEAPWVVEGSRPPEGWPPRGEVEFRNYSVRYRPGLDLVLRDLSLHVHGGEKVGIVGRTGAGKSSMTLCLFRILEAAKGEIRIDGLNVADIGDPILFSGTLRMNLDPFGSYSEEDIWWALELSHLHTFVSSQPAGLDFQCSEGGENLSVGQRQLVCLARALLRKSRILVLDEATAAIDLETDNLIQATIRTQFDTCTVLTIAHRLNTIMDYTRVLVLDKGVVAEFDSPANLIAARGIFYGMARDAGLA

Activity [1] | SMILES | Activity [2]
inducer [+] | COC(=O)Nc1nc2cc(C(=O)c3cccs3)ccc2[nH]1 | –
– | COC(=O)Nc1nc2ccc(C(=O)c3cccs3)cc2[nH]1 [NOCODAZOLE] | inducer [+]
